According to patent US12661308B2, “Antimicrobial AZO compounds and uses thereof” (The Regents Of The University Of Colorado, A Body Corporate, priority 2019, dated 2026):

Columns and labels:
[1] = test system: S. mutans; test: Detachment study of S. mutans from OH-AAZO coated substrate with and without light (Example 2); format: cell-based, Streptococcus mutans; conditions: 50 mg/mL coating
Method: In this Example, detachment of S. mutans from a polymeric substrate coated with a 50 mg/mL OH-AAZO solution was evaluated. Four conditions were evaluated. The first is where the polymeric substrate is coated with OH-AAZO and exposed to light to produce a photofluidization effect due to the rapid trans cis isomerization (Azo, light or AL). The second is where the polymeric substrate is coated with OH-AAZO and not exposed to light (Azo, no light or ANL). The third is where the polymeric substrate is not coated with OH-AAZO and is exposed to light (no Azo, light or NAL). The fourth is where the polymeric substrate is not coated with OH-AAZO and is not exposed to light (no Azo, no light or NANL).

[2] = test system: L929 mouse epithelial cells; test: Cytotoxicity study, MTT (Example 4); format: cell-based; conditions: 50 mg/mL coated substrates
Method: Cytotoxicity studies were performed as described previously. Riss et al., Cell Viability Assays, (Promega). Briefly, L929 mouse epithelial cells were suspended in cell culture media (DMEM, 10% FBS, 1% penicillin streptomycin) to a final concentration of 1.06×10^5 cells/mL. 1 mL of the suspension was added to each well in a 24-well plate containing the substrates and allowed to grow to confluence. Cell growth was monitored via a phase contrast inverted microscope (Leica, WLD MPS32, Germany). Once confluent, the media was aspirated off, and 500 μL of a 1 mg/mL solution of MTT reagent in DMEM media was added to each well. The plate was incubated for 4 h, and 500 μL of 20% SDS in 50% DMF was added to each well containing the MTT reagent. The plate was incubated for an additional 24 h, then removed and analyzed by an absorbance reading at λ=570 nm (FIG. 10).

[3] = test system: Methicillin-susceptible S. aureus biofilm; test: Biofilm growth study, S. aureus; format: cell-based, Staphylococcus aureus; conditions: 50 mg/mL coated substrate, 24 h time-period
Method: Methicillin-susceptible S. aureus biofilms were grown from a 20 h BHI liquid culture inoculated with an S. aureus colony. The liquid culture was diluted 10^3 to a stock solution in BHI, then diluted 1:10 in BHI media containing 0.4 wt. % glucose in a 96-well plate. The plate was incubated in the dark at 37 ° C. for 24 h.
(§1) Following biofilm growth in the 96-well plate, the substrates were aseptically removed from the 96-well plate and placed in a vial containing 5 mL of 1× PBS solution. The vials were sonicated in a water bath for 10 min at 45° C., and the wells that previously contained the substrates were briefly sonicated using a probe sonicator (3 W RMS output) for 10 s per well. 200 μL aliquots of the sonicated PBS solution were placed in a 96-well plate and diluted 1:10 in each subsequent row. 20 μL aliquots of the sonicated media wells were placed in a 96-well plate containing 180 μL of PBS solution and diluted 1:10 in each subsequent row. Each column was then plated at a volume of 10 μL on a BHI agar plate in triplicate. The plates were then incubated at 37° C. and 5% CO2 for 48 h. The CFUs on each plate were counted in order to quantify the amount of biofilm remaining on the surface of the substrate and the bacteria remaining in the media after the removal of the substrate using the following equations: […]

[4] = test system: S. agalactiae (Group B strep, GBS); test: Growth study, S. agalactiae (Group B strep); format: cell-based, Streptococcus agalactiae; conditions: 50 mg/ML coated substrates, BHI media, 24 h time-period
Method: (§2) A single bacterial colony was inoculated in 4 mL BHI media. The colony was grown to mid-log phase (to approximately OD600=0.4), statically at 37° C., which for was approximately 4 hours for the S. agalactiae GBS, approximately 11 hours for the S. pyogenes GAS, and approximately 6 hours for the S. pneumaoniae. They were diluted 1:5 in 80% glycerol (in water) solution (4 parts culture, 1 part glycerol, for a final glycerol concentration of 16%). In a 96-well plate, each was diluted to 1:100 resulting in a final concentration of 1×10^6 CFU/mL and grown at 37° C. with 5% CO2.

[5] = test system: S. mutans biofilm; test: S. mutans biofilm growth on coated pit and fissure dental sealants; format: cell-based, Streptococcus mutans; conditions: coating on pit and fissure sealants
Text: In some implementations, the azobenzene polymers can be used as an antimicrobial coating on pit and fissure dental sealants. […] Azobenzene coatings can be incorporated into pit and fissure sealants as an anti-bacterial coating to prevent tooth decay.

[6] = test system: A. actinomycetemcomitans (ATCC 43718) biofilm; test: Biofilm growth study, A. actinomycetemcomitans; format: cell-based, Aggregatibacter actinomycetemcomitans; conditions: 50 mg/mL coated substrate, 24 h time-period
Method: S. oralis and A. actinomycetemcomitans were streaked on a BHI agar plate and incubated at 37° C. and 5% CO2 for 48 h. An isolated colony was inoculated in 5 mL BHI media for 12 h under the same incubation conditions, followed by a 1:10 dilution in BHI media in a 96-well plate containing the substrates of interest. […]
as §1

[7] = test system: S. pneumoniae (Pneumonococcus, Pn); test: Growth study, S. pneumoniae; format: cell-based, Streptococcus pneumoniae; conditions: 50 mg/ML coated substrates, BHI media, 24 h time-period
Method: as §2

Compound: C=CC(=O)Oc1ccccc1/N=N/c1ccccc1O [OH-AAZO, phenolic acrylated azobenzene]
- S. mutans growth ([1]; exposed to light (AL), over 48 hr): no growth
- S. mutans growth ([1]; no light (ANL), first 33 hr): minimal growth
- S. mutans growth ([1]; no light (ANL), t=48 hr): some minimal biofilm growth
- cytocompatibility [2]: cytocompatible
- antibacterial effect on S. aureus biofilm (CFUs) [3]: no discernable antibacterial effect or reduction in CFUs
- S. agalactiae growth on coated substrate and in media [4]: did not grow on the coated substrate nor in the media
- S. mutans biofilm growth [5]: absent
- antibacterial effect on A. actinomycetemcomitans biofilm (CFUs) [6]: no discernable antibacterial effect or reduction in CFUs
- S. pneumoniae growth on coated substrate and in media [7]: did not grow on the coated substrate nor in the media
